Test results reported in publication PMC3853718 (Journal of Translational Medicine, 2013).

Test system: subjects with advanced malignancies
Test: Phase 1 dose escalation: toxicity, safety and tolerability (DLT, MAD, RP2D, AEs)
Conditions: for TEAE: Abdominal distension / TEAE: Abdominal pain / TEAE: Anemia / TEAE: Asthenia / TEAE: Back pain / TEAE: Constipation / TEAE: Cough / TEAE: Decreased appetite / TEAE: Dehydration / TEAE: Diarrhea / TEAE: Dizziness / TEAE: Dyspnea / TEAE: Fatigue / TEAE: Flatulence / TEAE: Hyperbilirubinemia / TEAE: Hyperglycemia / TEAE: Hyperuricemia / TEAE: Hypokalemia / TEAE: Hypophosphatemia / TEAE: Increased ALP / TEAE: Increased ALT / TEAE: Increased AST / TEAE: Nausea / TEAE: Neutropenia / TEAE: Peripheral edema / TEAE: Pyrexia / TEAE: Subjects with any AE / TEAE: Urinary tract infection / TEAE: Vomiting / TEAE: Weight decreased: ≤ 5.08 mg/m^2 (n = 22)
Protocol: Subjects continued on treatment until there was disease progression, unacceptable toxicity, or the subject withdrew consent. The trial employed an accelerated titration design [16] starting at a dose of 0.33 mg/m^2 (one-sixth of the highest nontoxic dose in dogs).
the dose was doubled in sequential subjects until a DLT was observed or a subject experienced grade 2 toxicity [16]. In the case of an observed grade 2 toxicity, a second subject was enrolled at the same dose level. If the second subject also experienced a grade 2 toxicity, 2 additional subjects were accrued at that dose level for a total of 4 subjects. […] Each subject was allocated to only a single dose level of drug. Dose delay or modification was permitted based on laboratory and clinical assessment performed on the day of treatment.
Dose-limiting toxicities were determined during the first cycle for each dose level. A DLT was defined as any grade 3 or 4 hematologic toxicity lasting for at least 1 week, or as any grade 3 or 4 nonhematologic toxicity. […] Normal alkaline phosphatase level (< grade 1) at screening that rose to greater than or equal to grade 3; grade 1 or 2 alkaline phosphatase level at screening that rose to grade 4; grade 1 or 2 aspartate aminotransferase (AST) and/or alanine aminotransferase (ALT) levels at screening that doubled from baseline to become greater than or equal to grade 3; and any other abnormal nonhematology laboratory value greater than or equal to grade 3 that required medical intervention to treat, led to hospitalization, or persisted for at least 1 week were also considered DLTs.
Adverse events were graded based on the National Cancer Institute Common Terminology Criteria for Adverse Events (NCI CTCAE version 3.0) and were coded using the Medical Dictionary for Regulatory Activities (MedDRA version 13.0).

SMILES: CCc1cnn2c(NCc3ccc[n+]([O-])c3)cc(N3CCCC[C@H]3CCO)nc12 [dinaciclib]
- Subjects with DLT in cycle 1 (Dose level 14 mg/m^2, 5 subjects): 2
- treatment-related AE: anemia (RP2D 12 mg/m^2, 11 subjects): 5 [45%] subjects [%]
- treatment-related AE: asthenia (RP2D 12 mg/m^2, 11 subjects): 3 [27%] subjects [%]
- treatment-related AE: fatigue (RP2D 12 mg/m^2, 11 subjects): 4 [36%] subjects [%]
- treatment-related AE: hyperuricemia (RP2D 12 mg/m^2, 11 subjects): 3 [27%] subjects [%]
- treatment-related AE: nausea (RP2D 12 mg/m^2, 11 subjects): 3 [27%] subjects [%]
- treatment-related AE: neutropenia (RP2D 12 mg/m^2, 11 subjects): 4 [36%] subjects [%]
- treatment-related AE: pyrexia (RP2D 12 mg/m^2, 11 subjects): 3 [27%] subjects [%]
- treatment-related AE: vomiting (RP2D 12 mg/m^2, 11 subjects): 3 [27%] subjects [%]
- Serious adverse events (Subject 2901, Breast carcinoma, 0.33 mg/m^2, regardless of causality): Anemia, confusion, lethargy
- Serious adverse events (Subject 2914, Ovarian epithelial carcinoma, 3.63 mg/m^2, regardless of causality): Constipation, nausea, abdominal pain, vomiting
- Serious adverse events (Subject 2915, Adenocarcinoma, 3.63 mg/m^2, regardless of causality): Hypocalcemia, hypokalemia, hypophosphatemia, coagulation time prolonged
- Serious adverse events (Subject 2919, Colon cancer, 3.63 mg/m^2, regardless of causality): Back pain, chest pain, dyspnea
- Serious adverse events (Subject 2920, Melanoma, 3.63 mg/m^2, regardless of causality): Cholelithiasis, liver disorder
- Serious adverse events (Subject 2922, Ovarian epithelial cancer, 3.63 mg/m^2, regardless of causality): Intestinal ischemia, pericardial effusion
- Serious adverse events (Subject 2926, Pelvic sarcoma, 7.11 mg/m^2, regardless of causality): Deep vein thrombosis, anemia
- Serious adverse events (Subject 2927, Gastric adenocarcinoma, 7.11 mg/m^2, regardless of causality): Vomiting, aspiration
- Serious adverse events (Subject 2928, Gastrointestinal stromal tumor, 7.11 mg/m^2, regardless of causality): Gastric ulcer, hematemesis, asthenia, sepsis, dyspnea, mental status changes, overdose
- Serious adverse events (Subject 2930, SCLC, 7.11 mg/m^2, regardless of causality): Cardiac arrest
- Serious adverse events (Subject 2931, Esophageal carcinoma, 7.11 mg/m^2, regardless of causality): Esophageal obstruction, pyrexia, hemorrhagic anemia
- Serious adverse events (Subject 2937, Adenoid cyst carcinoma, 14 mg/m^2, regardless of causality): Pneumothorax, cardiac tamponade, pneumoperitoneum, intestinal perforation, peritonitis, sepsis
- Serious adverse events (Subject 2940, Breast carcinoma, 14 mg/m^2, regardless of causality): Death
- Serious adverse events (Subject 2945, NSCLC, 12 mg/m^2, regardless of causality): Cerebrovascular accident
- Serious adverse events (Subject 2947, Colorectal cancer, 12 mg/m^2, regardless of causality): Pelvic abscess, septic shock, deep vein thrombosis
- Serious adverse events (Subject 2950, Colon cancer, 12 mg/m^2, regardless of causality): Deep vein thrombosis, bradycardia, respiratory failure, syncope, tumor lysis syndrome
- Serious adverse events (Subject 2951, Ovarian metastatic cancer, 12 mg/m^2, regardless of causality): Anemia, neutropenic sepsis, sepsis, gastrointestinal hemorrhage, diarrhea, bacterial infection, neutropenia, thrombocytopenia
- SAE: anemia (all dose levels): 3 (6%) subjects (%)
- SAE: deep vein thrombosis (all dose levels): 3 (6%) subjects (%)
- SAE: sepsis (all dose levels): 3 (6%) subjects (%)
- grade 3 or 4 treatment-related AE: hyperuricemia (all dose levels): 3 [6%] subjects [%]
- grade 3 or 4 treatment-related AE: neutropenia (all dose levels): 5 [10%] subjects [%]
- subjects with AEs leading to discontinuation of treatment (all dose levels): 6 (13%) subjects (%)
- subjects with grade 3 or 4 treatment-related AEs (all dose levels): 16 subjects
- subjects with serious AEs (SAEs) (all dose levels): 17 (33%) subjects (%)
- treatment-related AE: anemia (all dose levels): 10 [21%] subjects [%]
- treatment-related AE: fatigue (all dose levels): 7 [15%] subjects [%]
- treatment-related AE: nausea (all dose levels): 16 [33%] subjects [%]
- treatment-related AE: neutropenia (all dose levels): 8 [17%] subjects [%]
- treatment-related AE: vomiting (all dose levels): 8 [17%] subjects [%]
- subjects reporting treatment-emergent adverse events (all dose levels, 48 treated): 47 (98%) subjects (%)
- subjects with AEs possibly related to study drug (all dose levels, 48 treated): 35 (73%) subjects (%)
- instances of grade 2 toxicity (at 1.32 mg/m^2): 2
- deaths due to disease progression (of 52 enrolled, considered unlikely related to study treatment): 7 [13%] subjects [%]
- deaths due to AEs (of 52 enrolled, deemed unlikely related to dinaciclib, one subject never treated): 4 (8%) subjects (%)
- subjects who died during this study (of the 52 subjects enrolled): 21%
- TEAE: Abdominal distension (All grades): 3 (14) n (%)
- TEAE: Abdominal pain (All grades): 4 (18) n (%)
- TEAE: Anemia (All grades): 8 (36) n (%)
- TEAE: Asthenia (All grades): 4 (18) n (%)
- TEAE: Back pain (All grades): 8 (36) n (%)
- TEAE: Constipation (All grades): 5 (23) n (%)
- TEAE: Cough (All grades): 3 (14) n (%)
- TEAE: Decreased appetite (All grades): 9 (41) n (%)
- TEAE: Dehydration (All grades): 8 (36) n (%)
- TEAE: Diarrhea (All grades): 3 (14) n (%)
- TEAE: Dizziness (All grades): 0 n (%)
- TEAE: Dyspnea (All grades): 3 (14) n (%)
- TEAE: Fatigue (All grades): 7 (32) n (%)
- TEAE: Flatulence (All grades): 3 (14) n (%)
- TEAE: Hyperbilirubinemia (All grades): 5 (23) n (%)
- TEAE: Hyperglycemia (All grades): 1 (5) n (%)
- TEAE: Hyperuricemia (All grades): 1 (5) n (%)
- TEAE: Hypokalemia (All grades): 2 (9) n (%)
- TEAE: Hypophosphatemia (All grades): 4 (18) n (%)
- TEAE: Increased ALP (All grades): 3 (14) n (%)
- TEAE: Increased ALT (All grades): 3 (14) n (%)
- TEAE: Increased AST (All grades): 3 (14) n (%)
- TEAE: Nausea (All grades): 6 (27) n (%)
- TEAE: Neutropenia (All grades): 0 n (%)
- TEAE: Peripheral edema (All grades): 3 (14) n (%)
- TEAE: Pyrexia (All grades): 3 (14) n (%)
- TEAE: Subjects with any AE (All grades): 21 (95) n (%)
- TEAE: Urinary tract infection (All grades): 5 (23) n (%)
- TEAE: Vomiting (All grades): 2 (9) n (%)
- TEAE: Weight decreased (All grades): 4 (18) n (%)
- TEAE: Abdominal distension (Grade 3–4): 0 n (%)
- TEAE: Abdominal pain (Grade 3–4): 1 (5) n (%)
- TEAE: Anemia (Grade 3–4): 1 (5) n (%)
- TEAE: Asthenia (Grade 3–4): 2 (9) n (%)
- TEAE: Back pain (Grade 3–4): 3 (14) n (%)
- TEAE: Constipation (Grade 3–4): 0 n (%)
- TEAE: Cough (Grade 3–4): 0 n (%)
- TEAE: Decreased appetite (Grade 3–4): 0 n (%)
- TEAE: Dehydration (Grade 3–4): 0 n (%)
- TEAE: Diarrhea (Grade 3–4): 0 n (%)
- TEAE: Dizziness (Grade 3–4): 0 n (%)
- TEAE: Dyspnea (Grade 3–4): 1 (5) n (%)
- TEAE: Fatigue (Grade 3–4): 2 (9) n (%)
- TEAE: Flatulence (Grade 3–4): 0 n (%)
- TEAE: Hyperbilirubinemia (Grade 3–4): 3 (14) n (%)
- TEAE: Hyperglycemia (Grade 3–4): 0 n (%)
- TEAE: Hyperuricemia (Grade 3–4): 1 (5) n (%)
- TEAE: Hypokalemia (Grade 3–4): 1 (5) n (%)
- TEAE: Hypophosphatemia (Grade 3–4): 3 (14) n (%)
- TEAE: Increased ALP (Grade 3–4): 1 (5) n (%)
- TEAE: Increased ALT (Grade 3–4): 1 (5) n (%)
- TEAE: Increased AST (Grade 3–4): 1 (5) n (%)
- TEAE: Nausea (Grade 3–4): 0 n (%)
- TEAE: Neutropenia (Grade 3–4): 0 n (%)
- TEAE: Peripheral edema (Grade 3–4): 0 n (%)
- TEAE: Pyrexia (Grade 3–4): 0 n (%)
- TEAE: Subjects with any AE (Grade 3–4): 11 (50) n (%)
- TEAE: Urinary tract infection (Grade 3–4): 0 n (%)
- TEAE: Vomiting (Grade 3–4): 1 (5) n (%)
- TEAE: Weight decreased (Grade 3–4): 0 n (%)
